Source: US12371428B2 (Exelixis, Inc., priority 2019, dated 2025)
Structures can show the parent of a compound that is named as a salt.

Assays:
[1] = molecular target: KDR (phospho-KDR, VEGF165-stimulated HUVEC cells) (Homo sapiens (Human), UniProt P35968); test: KDR autophosphorylation ELISA in HUVEC cells (Example G); type: cell-based; conditions: cellular activity; KDR autophosphorylation ELISA in HUVEC cells
Method in brief: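 Read-out is phospho-KDR measured by ELISA in lysates of VEGF165-stimulated (100 ng/mL, 5 min) HUVEC that were serum-starved 24 h and then pre-exposed 1 h to compound across 8 doses in 0.3% DMSO. Unstimulated lysates defined 0% and stimulated vehicle lysates 100% activity; IC50 values come from 4-parameter logistic regression.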

[2] = molecular target: Human MET (residues 956-1390) (Homo sapiens (Human), UniProt P08581); test: Human Met kinase assay, HTRF KinEase (Example D-2); type: biochemical; conditions: protocol of Example D-2 (other compounds); read-out: c-Met IC50
Method in brief: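 HTRF KinEase assay on MET residues 956-1390 (0.1 ng/well) in buffer with 5 mM MgCl2, 1 mM DTT and 1 mM MnCl2, with biotinylated peptide substrate, ATP at Km, 10 compound concentrations and 3% DMSO final, run 40 min at room temperature. The […] signal was normalized to DMSO and to 1 μM reference compound, and IC50 came from a 4-parameter logistic fit.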

[3] = molecular target: Human MER (residues 528-999) (Homo sapiens (Human), UniProt Q12866); test: Human Mer kinase assay, HTRF KinEase (Example C-2); type: biochemical; conditions: protocol of Example C-2 (other compounds)
Method in brief: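 HTRF KinEase TK assay with MER 528-999 (1 ng/well) in enzymatic buffer plus 5 mM MgCl2 and 1 mM DTT, biotinylated peptide substrate and ATP at Km (40 μM), 3% DMSO final, 60 min at room temperature. Stopped with EDTA detection mix (SA-XL665, TK antibody-Eu3+), read at 665/620 nm after 60 min; IC50 from 10-point 4-parameter fit, normalized to DMSO and 1 μM reference.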

Chain of KDR (phospho-KDR, VEGF165-stimulated HUVEC cells) (P35968 20-1356): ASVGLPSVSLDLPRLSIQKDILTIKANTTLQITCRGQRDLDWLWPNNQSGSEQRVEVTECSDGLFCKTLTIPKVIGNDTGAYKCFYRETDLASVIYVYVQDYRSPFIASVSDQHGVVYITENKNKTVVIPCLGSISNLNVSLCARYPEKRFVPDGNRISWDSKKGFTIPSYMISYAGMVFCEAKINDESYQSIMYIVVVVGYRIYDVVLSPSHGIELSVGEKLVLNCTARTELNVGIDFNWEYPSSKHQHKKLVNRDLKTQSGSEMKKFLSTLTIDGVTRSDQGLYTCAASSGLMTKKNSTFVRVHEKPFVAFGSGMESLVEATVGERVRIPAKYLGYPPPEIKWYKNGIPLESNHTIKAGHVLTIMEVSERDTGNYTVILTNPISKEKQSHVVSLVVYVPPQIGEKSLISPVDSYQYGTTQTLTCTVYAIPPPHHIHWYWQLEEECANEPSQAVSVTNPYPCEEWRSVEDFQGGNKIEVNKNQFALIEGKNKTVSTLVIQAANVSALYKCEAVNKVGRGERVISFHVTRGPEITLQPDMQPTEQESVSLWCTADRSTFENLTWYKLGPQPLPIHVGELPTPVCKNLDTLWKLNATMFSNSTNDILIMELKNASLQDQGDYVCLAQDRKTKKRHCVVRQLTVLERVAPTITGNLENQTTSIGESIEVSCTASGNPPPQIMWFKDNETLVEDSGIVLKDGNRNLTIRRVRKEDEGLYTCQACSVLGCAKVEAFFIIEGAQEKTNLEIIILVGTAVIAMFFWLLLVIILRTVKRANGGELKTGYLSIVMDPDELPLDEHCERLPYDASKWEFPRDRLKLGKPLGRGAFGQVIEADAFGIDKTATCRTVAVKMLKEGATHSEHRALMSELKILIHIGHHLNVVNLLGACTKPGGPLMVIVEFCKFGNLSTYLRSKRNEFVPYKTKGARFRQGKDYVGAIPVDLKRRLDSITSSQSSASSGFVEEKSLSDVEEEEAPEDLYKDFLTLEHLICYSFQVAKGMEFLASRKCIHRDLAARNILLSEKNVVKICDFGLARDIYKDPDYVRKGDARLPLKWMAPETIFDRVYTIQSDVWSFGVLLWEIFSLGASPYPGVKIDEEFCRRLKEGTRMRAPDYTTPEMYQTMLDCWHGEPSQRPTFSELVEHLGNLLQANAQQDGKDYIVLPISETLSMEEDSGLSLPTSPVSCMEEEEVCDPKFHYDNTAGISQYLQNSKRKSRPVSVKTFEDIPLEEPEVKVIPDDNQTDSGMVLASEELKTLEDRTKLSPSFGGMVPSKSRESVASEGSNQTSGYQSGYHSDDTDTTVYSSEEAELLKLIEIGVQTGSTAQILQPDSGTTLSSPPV
Chain of Human MET (residues 956-1390) (P08581 956-1390): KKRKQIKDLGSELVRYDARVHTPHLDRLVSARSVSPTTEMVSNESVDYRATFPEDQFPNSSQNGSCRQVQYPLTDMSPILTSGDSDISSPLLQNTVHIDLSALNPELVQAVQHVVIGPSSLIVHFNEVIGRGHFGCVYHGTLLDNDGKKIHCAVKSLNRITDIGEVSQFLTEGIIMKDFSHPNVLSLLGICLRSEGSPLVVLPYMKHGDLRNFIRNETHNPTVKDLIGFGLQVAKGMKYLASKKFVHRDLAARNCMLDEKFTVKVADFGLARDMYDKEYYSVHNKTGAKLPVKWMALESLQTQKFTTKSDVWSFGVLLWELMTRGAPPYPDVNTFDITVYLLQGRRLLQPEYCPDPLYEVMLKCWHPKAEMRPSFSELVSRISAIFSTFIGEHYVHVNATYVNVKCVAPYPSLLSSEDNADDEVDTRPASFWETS
Chain of Human MER (residues 528-999) (Q12866 528-999): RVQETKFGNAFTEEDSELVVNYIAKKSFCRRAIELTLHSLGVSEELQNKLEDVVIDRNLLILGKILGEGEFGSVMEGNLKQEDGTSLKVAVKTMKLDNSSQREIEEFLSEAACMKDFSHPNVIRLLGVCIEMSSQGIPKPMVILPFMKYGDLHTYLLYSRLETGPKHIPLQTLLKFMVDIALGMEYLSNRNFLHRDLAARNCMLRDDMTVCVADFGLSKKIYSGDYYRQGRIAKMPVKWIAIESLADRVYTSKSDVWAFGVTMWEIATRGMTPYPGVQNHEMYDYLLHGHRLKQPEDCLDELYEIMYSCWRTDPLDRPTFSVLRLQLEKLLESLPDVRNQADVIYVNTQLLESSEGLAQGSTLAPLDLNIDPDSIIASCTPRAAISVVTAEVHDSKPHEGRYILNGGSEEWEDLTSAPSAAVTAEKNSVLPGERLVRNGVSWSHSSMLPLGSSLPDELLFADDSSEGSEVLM

Structure (SMILES)	IC50 [1]	IC50 [2]	IC50 [3]
COc1ccc2nccc(Oc3ccc(NC(=O)c4c(C)ncc(-c5ccc(F)cc5)c4O)cc3F)c2n1 [Compound 242, N-[3-Fluoro-4-[(6-methoxy-1,5-naphthyridin-4-yl)oxy]phenyl]-5-(4-fluorophenyl)-4-hydroxy-2-methylpyridine-3-carboxamide]	< 100 nM	< 100 nM	< 100 nM
COc1cnc2c(Oc3ccc(NC(=O)c4n[nH]c(C)c(-c5ccc(F)cc5)c4=O)cc3F)ccnc2c1 [Compound 246, N-[3-Fluoro-4-[(7-methoxy-1,5-naphthyridin-4-yl)oxy]phenyl]-5-(4-fluorophenyl)-6-methyl-4-oxo-1H-pyridazine-3-carboxamide]	< 100 nM	< 100 nM	< 100 nM
COc1cc2nccc(Oc3ccc(NC(=O)c4cn(C)cc(-c5cccc(F)c5)c4=O)cc3F)c2nc1OC [Compound 35, N-[4-[(6,7-Dimethoxy-1,5-naphthyridin-4-yl)oxy]-3-fluorophenyl]-5-(3-fluorophenyl)-1-methyl-4-oxopyridine-3-carboxamide hydrochloride]	< 100 nM	< 100 nM	< 100 nM
COc1cc2nccc(Oc3ccc(NC(=O)c4c(C)ncc(-c5ccc(F)cc5)c4O)cc3)c2nc1OC [Compound 235, N-[4-[(6,7-Dimethoxy-1,5-naphthyridin-4-yl)oxy]phenyl]-5-(4-fluorophenyl)-4-hydroxy-2-methylpyridine-3-carboxamide]	< 100 nM	< 100 nM	< 100 nM
COc1cnc2c(Oc3ccc(NC(=O)c4nn(C)c(C)c(-c5ccc(F)cc5)c4=O)cc3F)ccnc2c1 [Compound 250, N-[3-Fluoro-4-[(7-methoxy-1,5-naphthyridin-4-yl)oxy]phenyl]-5-(4-fluorophenyl)-1,6-dimethyl-4-oxopyridazine-3-carboxamide]	> 300 nM	< 100 nM	< 100 nM
CCc1nc(C)c(-c2ccc(F)cc2)c(O)c1C(=O)Nc1ccc(Oc2ccnc3ccc(OC)nc23)c(F)c1 [Compound 182, 2-Ethyl-N-[3-fluoro-4-[(6-methoxy-1,5-naphthyridin-4-yl)oxy]phenyl]-5-(4-fluorophenyl)-4-hydroxy-6-methylpyridine-3-carboxamide]	< 100 nM	< 100 nM	< 100 nM
COc1cnc2c(Oc3ccc(NC(=O)c4cnc(C)c(-c5ccc(F)cc5C)c4O)cc3)ccnc2c1 [Compound 176, 5-(4-Fluoro-2-methylphenyl)-4-hydroxy-N-[4-[(7-methoxy-1,5-naphthyridin-4-yl)oxy]phenyl]-6-methylpyridine-3-carboxamide]	< 100 nM	< 100 nM	< 100 nM
COCc1nc(C)c(-c2ccc(F)cc2C)c(O)c1C(=O)Nc1ccc(Oc2ccnc3ccc(OC)nc23)c(F)c1 [Compound 195, N-[3-Fluoro-4-[(6-methoxy-1,5-naphthyridin-4-yl)oxy]phenyl]-5-(4-fluoro-2-methylphenyl)-4-hydroxy-2-(methoxymethyl)-6-methylpyridine-3-carboxamide]	< 100 nM	100 to 300 nM	< 100 nM
COc1cnc2c(Oc3ccc(NC(=O)c4cn(C)c(C)c(-c5ccc(F)cc5C)c4=O)cc3F)ccnc2c1 [Compound 181, N-[3-Fluoro-4-[(7-methoxy-1,5-naphthyridin-4-yl)oxy]phenyl]-5-(4-fluoro-2-methylphenyl)-1,6-dimethyl-4-oxopyridine-3-carboxamide]	> 300 nM	< 100 nM	< 100 nM
COCc1nc(C)c(-c2ccc(F)cc2)c(O)c1C(=O)Nc1ccc(Oc2ccnc3cc(OC)c(OC)nc23)c(F)c1 [Compound 184, N-[4-[(6,7-Dimethoxy-1,5-naphthyridin-4-yl)oxy]-3-fluorophenyl]-5-(4-fluorophenyl)-4-hydroxy-2-(methoxymethyl)-6-methylpyridine-3-carboxamide]	< 100 nM	< 100 nM	< 100 nM
COc1cnc2c(Oc3ccc(NC(=O)c4c(C)nc(C)c(-c5ccc(F)cc5C)c4O)cc3F)ccnc2c1 [Compound 178, N-[3-Fluoro-4-[(7-methoxy-1,5-naphthyridin-4-yl)oxy]phenyl]-5-(4-fluoro-2-methylphenyl)-4-hydroxy-2,6-dimethylpyridine-3-carboxamide]	< 100 nM	< 100 nM	< 100 nM
COc1cnc2c(Oc3ccc(NC(=O)c4ccc(C)n(-c5ccc(F)cc5C)c4=O)cc3)ccnc2c1 [Compound 226, 1-(4-Fluoro-2-methylphenyl)-N-[4-[(7-methoxy-1,5-naphthyridin-4-yl)oxy]phenyl]-6-methyl-2-oxopyridine-3-carboxamide]	< 100 nM	< 100 nM	< 100 nM
COc1cnc2c(Oc3ccc(NC(=O)c4c(C)nc(C)n(-c5ccc(F)cc5)c4=O)cc3)ccnc2c1 [Compound 258, 1-(4-Fluorophenyl)-N-[4-[(7-methoxy-1,5-naphthyridin-4-yl)oxy]phenyl]-2,4-dimethyl-6-oxopyrimidine-5-carboxamide]	100 to 300 nM	< 100 nM	< 100 nM
COc1cnc2c(Oc3ccc(NC(=O)c4cnc(C(F)(F)F)c(-c5ccc(F)cc5)c4O)cc3F)ccnc2c1 [Compound 241, N-[3-Fluoro-4-[(7-methoxy-1,5-naphthyridin-4-yl)oxy]phenyl]-5-(4-fluorophenyl)-4-hydroxy-6-(trifluoromethyl)pyridine-3-carboxamide]	> 300 nM	100 to 300 nM	< 100 nM
COc1cnc2c(Oc3ccc(NC(=O)c4ccc(C)n(-c5ccc(F)cc5C)c4=O)cc3F)ccnc2c1 [Compound 220, N-[3-Fluoro-4-[(7-methoxy-1,5-naphthyridin-4-yl)oxy]phenyl]-1-(4-fluoro-2-methylphenyl)-6-methyl-2-oxopyridine-3-carboxamide]	< 100 nM	< 100 nM	< 100 nM
COc1cnc2c(Oc3ccc(NC(=O)c4c(C)ncn(-c5ccc(F)cc5)c4=O)cc3F)ccnc2c1 [Compound 256, N-[3-Fluoro-4-[(7-methoxy-1,5-naphthyridin-4-yl)oxy]phenyl]-1-(4-fluorophenyl)-4-methyl-6-oxopyrimidine-5-carboxamide]	> 300 nM	< 100 nM	< 100 nM
COc1cc2nccc(Oc3ccc(NC(=O)c4cn(C)c(C)c(-c5cccc(F)c5)c4=O)cc3F)c2nc1OC [Compound 37, N-[4-[(6,7-Dimethoxy-1,5-naphthyridin-4-yl)oxy]-3-fluorophenyl]-5-(3-fluorophenyl)-1,6-dimethyl-4-oxopyridine-3-carboxamide hydrochloride]	100 to 300 nM	< 100 nM	< 100 nM
